Test results: patent US10168342B2, “Lipid probes and uses thereof” (THE SCRIPPS RESEARCH INSTITUTE, priority 2015, dated 2019)
Where two headings read alike, the source gives them in different places.

Experiments:
[1] = system: AEA-DA lipid probe targets in Neuro2a cells; details: for SILAC ratio, GM20425 (E9Q035): AEA-DA probe
[2] = target: T1, AEA-DA lipid probe targets in Neuro2a cells (Mus musculus, UniProt Q80UU9); details: for SILAC ratio, PGRMC2 (Q80UU9): Neuro2a cells, AEA-DA probe
T1 sequence (Q80UU9 1-217): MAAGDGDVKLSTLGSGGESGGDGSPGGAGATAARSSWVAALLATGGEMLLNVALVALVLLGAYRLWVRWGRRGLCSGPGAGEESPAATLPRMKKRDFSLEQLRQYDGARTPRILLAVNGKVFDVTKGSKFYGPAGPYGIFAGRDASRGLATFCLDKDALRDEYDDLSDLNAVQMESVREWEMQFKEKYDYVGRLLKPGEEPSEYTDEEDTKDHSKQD

[3] = target: T2, AEA-DA lipid probe targets in Neuro2a cells (Mus musculus, UniProt P16014)
T2 sequence (P16014 21-677): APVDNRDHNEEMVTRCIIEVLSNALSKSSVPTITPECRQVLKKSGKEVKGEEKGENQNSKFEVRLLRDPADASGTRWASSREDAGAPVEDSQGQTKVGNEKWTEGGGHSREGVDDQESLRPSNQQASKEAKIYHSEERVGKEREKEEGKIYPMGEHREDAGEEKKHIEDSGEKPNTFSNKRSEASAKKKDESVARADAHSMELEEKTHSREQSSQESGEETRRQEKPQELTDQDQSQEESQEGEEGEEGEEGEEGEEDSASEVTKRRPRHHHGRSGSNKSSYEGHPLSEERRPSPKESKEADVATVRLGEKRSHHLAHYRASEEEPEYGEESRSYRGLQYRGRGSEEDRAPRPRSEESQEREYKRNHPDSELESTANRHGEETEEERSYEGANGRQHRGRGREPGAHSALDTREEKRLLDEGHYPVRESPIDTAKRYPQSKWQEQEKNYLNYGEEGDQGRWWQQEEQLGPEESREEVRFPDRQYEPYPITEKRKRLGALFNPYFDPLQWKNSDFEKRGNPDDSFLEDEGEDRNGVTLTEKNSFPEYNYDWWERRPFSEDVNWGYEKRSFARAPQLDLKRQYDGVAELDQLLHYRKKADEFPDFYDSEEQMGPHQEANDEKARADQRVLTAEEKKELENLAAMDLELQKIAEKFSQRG

[4] = target: AEA-DA lipid probe targets in Neuro2a cells (Mus musculus, UniProt Q60864)
[5] = target: T3, AEA-DA lipid probe targets in Neuro2a cells (Mus musculus, UniProt Q924Z4); details: for SILAC ratio, CERS2 (Q924Z4): Neuro2a cells, AEA-DA probe
T3 sequence (Q924Z4 1-380): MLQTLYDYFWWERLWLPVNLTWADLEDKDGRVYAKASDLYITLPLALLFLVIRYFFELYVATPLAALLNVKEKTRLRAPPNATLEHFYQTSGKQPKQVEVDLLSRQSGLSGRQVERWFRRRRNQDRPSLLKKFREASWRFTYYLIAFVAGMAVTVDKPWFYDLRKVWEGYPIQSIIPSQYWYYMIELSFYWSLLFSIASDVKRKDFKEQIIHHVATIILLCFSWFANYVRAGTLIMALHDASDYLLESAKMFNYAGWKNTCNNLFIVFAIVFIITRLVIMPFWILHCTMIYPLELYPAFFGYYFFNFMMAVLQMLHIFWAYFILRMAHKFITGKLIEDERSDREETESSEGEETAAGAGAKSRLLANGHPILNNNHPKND

[6] = target: AEA-DA lipid probe targets in Neuro2a cells (Mus musculus, UniProt O89079)
[7] = target: T4, AEA-DA lipid probe targets in Neuro2a cells (Mus musculus, UniProt Q8CAQ8)
T4 sequence (Q8CAQ8 34-757): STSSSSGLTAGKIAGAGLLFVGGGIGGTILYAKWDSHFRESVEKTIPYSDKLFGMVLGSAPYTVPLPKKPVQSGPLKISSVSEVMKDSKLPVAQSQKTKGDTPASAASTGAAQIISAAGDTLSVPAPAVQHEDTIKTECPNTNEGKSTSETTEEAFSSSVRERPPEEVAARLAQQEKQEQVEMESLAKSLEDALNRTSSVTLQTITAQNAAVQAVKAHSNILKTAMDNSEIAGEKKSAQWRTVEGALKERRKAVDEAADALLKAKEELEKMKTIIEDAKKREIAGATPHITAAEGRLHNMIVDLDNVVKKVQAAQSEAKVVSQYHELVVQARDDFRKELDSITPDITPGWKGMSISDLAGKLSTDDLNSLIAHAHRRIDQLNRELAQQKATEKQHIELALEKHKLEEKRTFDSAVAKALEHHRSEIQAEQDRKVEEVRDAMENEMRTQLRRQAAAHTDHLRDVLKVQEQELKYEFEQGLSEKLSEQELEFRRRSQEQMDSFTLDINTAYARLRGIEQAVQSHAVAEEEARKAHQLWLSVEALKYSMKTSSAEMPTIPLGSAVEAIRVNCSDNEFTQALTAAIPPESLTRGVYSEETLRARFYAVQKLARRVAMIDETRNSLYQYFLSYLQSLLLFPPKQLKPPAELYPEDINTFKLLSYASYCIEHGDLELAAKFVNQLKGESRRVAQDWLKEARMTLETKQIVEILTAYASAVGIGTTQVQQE

[8] = target: AEA-DA lipid probe targets in Neuro2a cells (Mus musculus, UniProt P45377)
[9] = target: T5, AEA-DA lipid probe targets in Neuro2a cells (Mus musculus, UniProt O08547)
T5 sequence (O08547 1-215): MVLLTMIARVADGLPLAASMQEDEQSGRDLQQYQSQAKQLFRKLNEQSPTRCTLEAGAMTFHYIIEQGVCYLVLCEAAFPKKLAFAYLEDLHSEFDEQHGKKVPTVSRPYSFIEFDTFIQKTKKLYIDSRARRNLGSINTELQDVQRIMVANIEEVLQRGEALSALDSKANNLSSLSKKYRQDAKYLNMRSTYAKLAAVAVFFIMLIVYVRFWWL

Chain of AEA-DA lipid probe targets in Neuro2a cells (Mus musculus, UniProt P45377) (P45377 whole entry): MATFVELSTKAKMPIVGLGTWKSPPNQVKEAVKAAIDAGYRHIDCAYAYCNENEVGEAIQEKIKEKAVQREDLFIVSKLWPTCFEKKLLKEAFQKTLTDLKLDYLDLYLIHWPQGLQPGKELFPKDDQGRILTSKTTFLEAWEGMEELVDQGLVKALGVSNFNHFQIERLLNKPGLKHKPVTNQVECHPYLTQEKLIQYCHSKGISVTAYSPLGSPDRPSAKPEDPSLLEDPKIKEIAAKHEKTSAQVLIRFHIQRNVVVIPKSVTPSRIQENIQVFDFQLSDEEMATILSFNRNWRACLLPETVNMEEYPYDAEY
Chain of AEA-DA lipid probe targets in Neuro2a cells (Mus musculus, UniProt O89079) (O89079 whole entry): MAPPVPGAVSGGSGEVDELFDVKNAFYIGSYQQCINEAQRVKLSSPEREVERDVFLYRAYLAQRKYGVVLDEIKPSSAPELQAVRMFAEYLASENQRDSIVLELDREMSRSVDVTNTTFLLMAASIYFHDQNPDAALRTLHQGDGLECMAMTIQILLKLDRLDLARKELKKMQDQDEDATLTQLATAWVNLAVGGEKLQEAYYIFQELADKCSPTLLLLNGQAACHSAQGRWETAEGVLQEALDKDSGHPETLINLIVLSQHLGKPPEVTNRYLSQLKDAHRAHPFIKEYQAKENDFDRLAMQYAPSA

Question: For O=C(/C=C/c1cccnc1)NCCCCC1CCN(C(=O)c2ccccc2)CC1 [FK-866, reference compound], which “competition of probe labeling of NAMPT and ABCB1B” value ([1]; Neuro2a cells, AEA-DA 5 μM, drug 25 μM) is on record?
Answer: competed probe-labeling

Question: What about the “SILAC ratio, GM20425 (E9Q035)” value ([1]; Neuro2a cells, competitor 25 μM) of the same compound?
Answer: 1.2

Question: What about the “SILAC ratio Akr1c12” value ([1]; competitor 25 μM) of the same compound?
Answer: 1.3

Question: What about the “SILAC ratio H2-K1” value ([1]; competitor 25 μM) of the same compound?
Answer: 1.0

Question: What about the “SILAC ratio Nup205” value ([1]; competitor 25 μM) of the same compound?
Answer: 0.9

Question: What about the “SILAC ratio Uncharacterized” value ([1]; competitor 25 μM) of the same compound?
Answer: 1.3

Question: And the “SILAC ratio, Gm20425” value ([1]; competitor 25 μM)?
Answer: 1.2

Question: And the “SILAC ratio, Tmpo” value ([1]; competitor 25 μM, first Tmpo line (r51))?
Answer: 1.0

Question: And the “SILAC ratio, Tmpo” value ([1]; competitor 25 μM, second Tmpo line (r55))?
Answer: 1.1

Question: What about the “SILAC ratio, PGRMC2 (Q80UU9)” value ([2]; competitor 25 μM) of the same compound?
Answer: 1.2

Question: And the “SILAC ratio, Pgrmc2” value ([2]; competitor 25 μM)?
Answer: 1.2

Question: And the “SILAC ratio Chgb” value ([3]; competitor 25 μM)?
Answer: 0.9

Question: What about the “SILAC ratio Stip1” value ([4]; competitor 25 μM) of the same compound?
Answer: 1.3

Question: And the “SILAC ratio, CERS2 (Q924Z4)” value ([5]; competitor 25 μM)?
Answer: 1.2

Question: And the “SILAC ratio, Cers2” value ([5]; competitor 25 μM)?
Answer: 1.2

Question: And the “SILAC ratio Cope” value ([6]; competitor 25 μM)?
Answer: 1.5

Question: What about the “SILAC ratio Immt” value ([7]; competitor 25 μM) of the same compound?
Answer: 1.1

Question: And the “SILAC ratio, Akr1b8” value ([8]; competitor 25 μM)?
Answer: 1.7

Question: What about the “SILAC ratio, Sec22b” value ([9]; competitor 25 μM) of the same compound?
Answer: 1.2

Question: What does the source list for CCCCC/C=C\C/C=C\C/C=C\C/C=C\CCCC(=O)NCCO [AEA, anandamide, reference compound]?
Answer: competition of AEA-DA labeling by lipid competitor ([1]; Neuro2a cells, 200 μM): competed with several targets; SILAC ratio, GM20425 (E9Q035) ([1]; Neuro2a cells, competitor 200 μM): 2.3; SILAC ratio Akr1c12 ([1]; competitor 200 μM): 1.8; SILAC ratio Uncharacterized ([1]; competitor 200 μM): 1.7; SILAC ratio, Akr1b10 ([1]; competitor 200 μM): 4.5; SILAC ratio, Gm20425 ([1]; competitor 200 μM): 2.3; SILAC ratio, Gm20671 ([1]; competitor 200 μM): 1.8; SILAC ratio, Tmpo ([1]; competitor 200 μM, first Tmpo line (r51)): 2.0; SILAC ratio, Tmpo ([1]; competitor 200 μM, second Tmpo line (r55)): 1.9; SILAC ratio, PGRMC2 (Q80UU9) ([2]; competitor 200 μM): 2.0; SILAC ratio, Pgrmc2 ([2]; competitor 200 μM): 2.0; SILAC ratio Chgb ([3]; competitor 200 μM): 1.2; SILAC ratio Stip1 ([4]; competitor 200 μM): 1.3; SILAC ratio, CERS2 (Q924Z4) ([5]; competitor 200 μM): 2.4; SILAC ratio, Cers2 ([5]; competitor 200 μM): 2.4; SILAC ratio Cope ([6]; competitor 200 μM): 0.9; SILAC ratio Immt ([7]; competitor 200 μM): 1.2; SILAC ratio, Akr1b8 ([8]; competitor 200 μM): 7.7; SILAC ratio, Sec22b ([9]; competitor 200 μM): 1.4
